How the values were obtained:
[1] = Plasma protein binding, human blood plasma; type: in vitro ADME
Procedure: Plasma protein binding analysis was performed as reported previously using human blood plasma samples [52].

COPD HBEC ALI cultures [2] = assay: Cigarette smoke extract (CSE) challenge in ALI, FITC-dextran permeability; type: cell-based, human; settings: 10 μM pre-treatment 3 days, CSE 1, 3 and 6% for 48 hours, two COPD donors
Procedure: (§1) The paracellular permeability was determined by using fluorescein isothiocyanate labeled 4kD-dextran (Sigma-Aldrich, St. Louis, USA). 18 hours after addition of 0.2 mg FITC-dextran in 200 μL medium to the apical side of the ALI cultures, the fluorescence in the basolateral medium was measured using PHERAstar FSX (excitation 485 nm and emission 520 nm) (BMG LABTECH, Ortenberg, Germany). The time point was chosen for optimal window in the assays as well as practical reasons and has been kept consistent in between different stimulations throughout this work. Data was plotted as fold-change of 0.1% DMSO control.
Cigarette smoke extract (CSE) experiments were performed using CSE containing media. In short, smoke from five filterless Kentucky research cigarettes, 3R4F (Kentucky Tobacco Research and Development Center, Lexington, USA), was bubbled through 25 ml of PBS at a speed of five minutes per cigarette. The CSE was filtered through a 0.2 μm sterile filter and stored at -80°C until addition to the basolateral side of HBEC ALI cultures from two COPD donors. […] Permeability was measured after 48 hours.

COPD HBEC ALI cultures [3] = assay: AB/PAS staining and quantification of cellular features from IHC sections, TNF challenge; type: cell-based, human
Procedure: Eight days post-treatment, HBEC ALI-cultures were fixed in 4% paraformaldehyde for fifteen minutes and washed three times in PBS. Dehydration in ethanol and xylene followed by paraffin (Merck, New Jersey, USA) infiltration was done with a short program for biopsies (1 hour 55 minutes) on a Microm STP 120 Spin Tissue Processor (Thermo Fisher Scientific). Cell layers were embedded in paraffin and 4 μm thick sections were made using a Leica RM2165 microtome (Leica, Wetzlar, Germany). Alcian Blue/Periodic Acid-Schiff (AB/PAS) with Haematoxylin staining were performed using standard protocols on a Leica ST5020. After staining, the sections were dehydrated in ethanol and xylene, mounted with Pertex mounting medium (Histolab, Göteborg, Sweden) and scanned with a Aperio Scanscope slide scanner (Leica Biosystems, Buffalo Grove, USA).
IHC images were analyzed in HALO v3.1 (Indica Labs). For all analyses, images were annotated manually to exclude out of focus and damaged areas, and a random forest classifier was applied to intact areas of the sections to detect epithelial areas. All following analyses were done in epithelial areas only. For goblet cell counting, algorithm CytoNuclear 2.0.9 was used to segment cells based on nuclear staining and categorize them as AB/PAS (mucin) positive and negative cells based on cytoplasmic AB staining. Goblet cell counting was represented as the percentage of AB positive cells of total cells.
To measure epithelial thickness, the apical and basal sides of the epithelium in the sections were manually delineated using a pen annotation tool. Distance between paired apical and basal annotations was measured every 10 μm along the epithelium, and recorded in sequence as epithelial thickness.
To measure intraepithelial and intercellular AB staining, algorithm Area Quantification v2.1.7 was used. Two thresholds were applied to capture AB staining: a lower one to detect all AB staining in both goblet cells and intercellular areas, and a higher one to detect the stronger AB staining inside goblet cells only. Intercellular AB area was calculated by subtracting goblet AB staining (higher threshold) from total AB staining (by lower threshold).

COPD HBEC ALI cultures [4] = assay: Whole cigarette smoke (WCS) challenge in ALI, FITC-dextran permeability; type: cell-based, human; settings: 10 μM started after first smoke exposure, 4 exposures in 2 days, all concentrations except the highest (1, 0.5 and 0.2 l/min dilution), one COPD donor, exploratory
Procedure: as §1
Whole cigarette smoke (WCS) experiments were performed using the Smoking Robot VC 10® S-TYPE (Vitrocell, Waldkirch, Germany). The Vitrocell smoke robot delivers either WCS or humidified air to the apical surface of the cell layers. Briefly, inserts with fully differentiated HBEC in ALI from one COPD donor were placed in the Vitrocell smoke chamber filled with DMEM medium (Thermo Fisher Scientific) and CS or humidified air was puffed onto the apical surface. ISO Puff Standard was used with each CS exposure consisting of two 3R4F Kentucky research cigarettes (one 35 ml puff every 60 seconds). Cells were exposed to WCS four times during two days with a minimum of two hours elapsed between smoke exposures. […] Permeability was measured 20 hours after the last smoke session.

Kv4.3 = molecular target: T1, Kv4.3 (Homo sapiens, UniProt Q9UK17); assay: Cardiovascular ion channel panel, SyncroPatch 384PE patch clamp; type: cell-based; settings: CHO K1 cell line, room temperature, 6 point cumulative assay
T1 construct: expressed in transfected cells; host or cells: Chinese hamster ovary K1 cell line
T1 sequence (Q9UK17 1-655): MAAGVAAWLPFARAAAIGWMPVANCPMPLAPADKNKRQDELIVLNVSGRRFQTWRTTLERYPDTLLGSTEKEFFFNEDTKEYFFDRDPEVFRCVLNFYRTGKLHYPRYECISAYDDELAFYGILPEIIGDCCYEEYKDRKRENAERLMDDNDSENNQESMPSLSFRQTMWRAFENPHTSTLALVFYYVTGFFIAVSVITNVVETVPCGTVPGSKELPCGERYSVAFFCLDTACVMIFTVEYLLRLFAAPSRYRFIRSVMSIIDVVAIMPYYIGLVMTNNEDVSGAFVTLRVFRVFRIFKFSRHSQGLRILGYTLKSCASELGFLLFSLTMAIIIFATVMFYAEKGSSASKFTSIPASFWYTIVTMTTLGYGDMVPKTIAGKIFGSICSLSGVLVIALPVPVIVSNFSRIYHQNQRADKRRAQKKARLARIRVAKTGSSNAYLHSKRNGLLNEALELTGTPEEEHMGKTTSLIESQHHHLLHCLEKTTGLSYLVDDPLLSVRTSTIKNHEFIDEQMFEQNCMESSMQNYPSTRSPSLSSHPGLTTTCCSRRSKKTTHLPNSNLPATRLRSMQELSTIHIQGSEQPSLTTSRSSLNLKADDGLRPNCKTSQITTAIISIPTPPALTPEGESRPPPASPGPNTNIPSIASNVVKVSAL

HDAC4 = molecular target: T2, HDAC4 (Homo sapiens, UniProt P56524); assay: HDAC enzymatic activity (Eurofins); type: biochemical; settings: Class IIA; ACY-1083 mean of two separate measurements, Ricolinostat and Tubastatin A one measurement
T2 construct: purchased Eurofins Pharma Discovery Services 2493
T2 sequence (P56524 whole entry): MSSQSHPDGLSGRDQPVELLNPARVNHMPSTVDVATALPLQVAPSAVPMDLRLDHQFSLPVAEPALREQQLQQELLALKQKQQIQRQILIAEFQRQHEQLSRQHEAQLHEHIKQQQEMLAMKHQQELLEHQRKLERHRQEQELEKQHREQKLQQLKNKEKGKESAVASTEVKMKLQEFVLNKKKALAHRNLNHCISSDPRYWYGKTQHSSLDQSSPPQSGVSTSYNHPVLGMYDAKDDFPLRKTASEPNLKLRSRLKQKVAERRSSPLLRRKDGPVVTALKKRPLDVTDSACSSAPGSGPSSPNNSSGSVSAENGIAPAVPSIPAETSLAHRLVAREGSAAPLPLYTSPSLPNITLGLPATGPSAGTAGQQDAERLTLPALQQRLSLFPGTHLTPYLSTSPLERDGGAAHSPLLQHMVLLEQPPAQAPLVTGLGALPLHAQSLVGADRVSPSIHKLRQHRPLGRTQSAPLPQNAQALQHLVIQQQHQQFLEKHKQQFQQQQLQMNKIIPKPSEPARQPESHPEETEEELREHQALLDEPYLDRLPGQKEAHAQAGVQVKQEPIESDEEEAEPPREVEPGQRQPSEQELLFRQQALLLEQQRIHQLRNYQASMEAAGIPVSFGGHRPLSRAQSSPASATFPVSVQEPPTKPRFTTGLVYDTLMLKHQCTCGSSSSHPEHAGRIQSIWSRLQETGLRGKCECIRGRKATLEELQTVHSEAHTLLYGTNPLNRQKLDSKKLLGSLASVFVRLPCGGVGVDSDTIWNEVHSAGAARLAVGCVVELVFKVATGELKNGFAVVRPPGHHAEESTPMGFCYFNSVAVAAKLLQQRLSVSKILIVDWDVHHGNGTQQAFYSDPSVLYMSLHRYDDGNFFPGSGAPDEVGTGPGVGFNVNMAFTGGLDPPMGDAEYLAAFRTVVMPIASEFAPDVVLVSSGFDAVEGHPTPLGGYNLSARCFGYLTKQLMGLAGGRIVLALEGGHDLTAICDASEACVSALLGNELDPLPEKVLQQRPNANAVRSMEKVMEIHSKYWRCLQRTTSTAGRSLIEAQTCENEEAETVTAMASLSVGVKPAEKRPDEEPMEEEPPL

[5] = Spike test in ALI cell media (stability and binding to plastic and media components); type: in vitro ADME
Procedure: Compound concentration was then analysed after 18hrs incubation at 37 °C by LC-MSMS (Method DMPK&BAC 001–04).

COPD HBEC ALI cultures [6] = assay: TGF-β1 challenge in ALI, FITC-dextran permeability; type: cell-based, human; settings: 10 μM pre-treatment 3 days, TGF-β 0.4, 2 and 10 ng/ml for 48 hours, two COPD donors
Procedure: as §1
Permeability was measured after 48 hours.

[7] = 10 μM spiked into cell media, 18 hrs

free fraction [1]: 23%
stability in human plasma [1]: stable
paracellular permeability after WCS challenge (COPD HBEC ALI cultures [4]): decrease permeability
IC50 (HDAC4): 12.5 µM
drug concentration after 18 hrs ([5]; 10 μM spiked into ALI cell media in a test tube, 37 °C, LC-MSMS): ~4 µM
compound lost in the system [5, 7]: 60%
remaining after spike test [5, 7]: approximately 40%
paracellular permeability after TGF-β challenge (COPD HBEC ALI cultures [6]): decreased it at all concentrations
Substance: ACY-1083
paracellular permeability after CSE challenge (COPD HBEC ALI cultures [2]): reduction in permeability at all concentrations
intraepithelial and intercellular AB area (COPD HBEC ALI cultures [3]; TNF 20 ng/ml + ACY-1083, p<0.0001): reduced to the no-TNF level
percentage of goblet cells (COPD HBEC ALI cultures [3]; TNF 20 ng/ml + ACY-1083, vs no-TNF DMSO control or TNF DMSO culture): increased but did not differ significantly
epithelial thickness variation (variance in height) (COPD HBEC ALI cultures [3]; TNF-challenged wells, four donors, p<0.001): smaller
goblet cell percentage (COPD HBEC ALI cultures [3]; only ACY-1083 vs no-TNF DMSO): No difference
activity on Kv4.3 (Kv4.3): > 30 µM
